The values below come from PMC12557365 (Journal of Medicinal Chemistry, 2025).

One assay concerns the target SARS-CoV-2 3CL^pro (Severe acute respiratory syndrome coronavirus 2, UniProt P0DTD1). The assay can be described thus: biochemical. The class given is biochemical.
Assay [1] relates to SARS-CoV-2 Omicron strains. Briefly: microbe, parasite or virus in culture. The format is cell-based. The conditions noted are these: Severe acute respiratory syndrome coronavirus 2, Epithelial cell, read-out: EC90 against the Omicron variants in hAECs.
A further assay deals with SARS-CoV-2 variants. Briefly: microbe, parasite or virus in culture. The class given is cell-based.
Assay [2] relates to rgSARS-CoV-2 with 3CL^pro mutations. The format is cell-based, SARS-CoV-2.

Read-outs that look alike come from different tables or passages of the source.

As for `Cc1cncc(-n2c(=O)c(Cc3cc(F)c(F)c(F)c3)c(N3CCCC3)n(CC#N)c2=O)c1` [Compound 5, 2-(3-(5-Methylpyridin-3-yl)-2,4-dioxo-6-(pyrrolidin-1-yl)-5-(3,4,5-trifluorobenzyl)-3,4-dihydropyrimidin-1(2H)-yl)-acetonitrile], on SARS-CoV-2 3CL^pro, the “decrease in activity versus compound 4” value is > 10 -fold.
As to `N#CCn1c(N2CC3(C2)CC(F)(F)C3)c(-c2ccc(F)c(Cl)c2)c(=O)n(-c2cncc(Cl)c2)c1=O` [Compound 17, [5-(3-Chloro-4-fluorophenyl)-3-(5-chloropyridin-3-yl)-6-(6,6-difluoro-2-azaspiro[3.3]-heptan-2-yl)-2,4-dioxo-3,4-dihydropyrimidin-1(2H)-yl]-acetonitrile], the EC90 (commonly the concentration needed for an effect of 90%) in assay [1] is 2.31 to 2.41 nM. The EC50 – broadly, the concentration that produces a half-maximal response – in the assay on SARS-CoV-2 variants (Severe acute respiratory syndrome coronavirus 2, VeroE6/TMPRSS2, read-out: EC50 against various SARS-CoV-2 variants) lay in the range of 2.27 to 12.5 nM.
`Cn1cnc(Cn2c(=O)[nH]/c(=N\c3cc4cn(C)nc4cc3Cl)n(Cc3cc(F)c(F)cc3F)c2=O)n1` [ensitrelvir]: the EC50 in the assay with SARS-CoV-2 variants was found to be 259 ± 41 nM.
Regarding `CC(C)(C)[C@H](NC(=O)C(F)(F)F)C(=O)N1C[C@H]2[C@@H]([C@H]1C(=O)N[C@H](C#N)C[C@@H]1CCNC1=O)C2(C)C` [nirmatrelvir, reference compound], it took 3150 ± 1010 nM to reach a half-maximal effect in assay [2] (EC50).
Same read-out and setting: to `CCC(CC)COC(=O)[C@H](C)N[P@](=O)(OC[C@H]1O[C@@](C#N)(c2ccc3c(N)ncnn23)[C@H](O)[C@@H]1O)Oc1ccccc1` [remdesivir] belongs 2010 ± 80 nM.
